Source: ChEMBL document CHEMBL4732077, “Potent and orally active purine-based fetal hemoglobin inducers for treating β-thalassemia and sickle cell disease” (Eur J Med Chem, 2021)
Blank lines part the entries; values can stand above or below the molecule they belong to. The source made the active and inactive calls. No cut-off for these calls is given here.

How the values were obtained:
Mus musculus [1] = assay: Antianemic effect in sickle cell disease mouse B6 model assessed as sickle cell level at 100 mg/kg, ip once daily, five days a week for 4 weeks (reference value: 16.78 +/- 1.9 %); type: functional
Mus musculus [2] = assay: Antianemic effect in sickle cell disease mouse B6 model assessed as reticulocytes level at 100 mg/kg, ip once daily, five days a week for 4 weeks (reference value: 57.34 +/- 3.67 %); type: functional
Mus musculus [3] = assay: Antianemic effect in sickle cell disease mouse B6 model assessed as neutrophils level at 100 mg/kg, ip once daily, five days a week for 4 weeks (reference value: 13.39 +/- 4.65 K/uL); type: functional
Mus musculus [4] = assay: Antianemic effect in sickle cell disease mouse B6 model assessed as RBC level at 100 mg/kg, ip once daily, five days a week for 4 weeks (reference value: 7.23 +/- 0.75 M/uL); type: functional
Mus musculus [5] = assay: Antianemic effect in sickle cell disease mouse B6 model assessed as WBC level at 100 mg/kg, ip once daily, five days a week for 4 weeks (reference value: 34.15 +/- 5.85 K/uL); type: functional
Erythrocyte [6] = assay: Induction of gamma-globin gene expression in human erythrocytes at 147 uM after 3 days by RT-PCR analysis; type: functional, cell-based; conditions: time 3.0 day
Mus musculus [7] = assay: Antianemic effect in sickle cell disease mouse B6 model assessed as hemoglobin level at 100 mg/kg, ip once daily, five days a week for 4 weeks (reference value: 7.46 +/- 0.7 g/dl); type: functional
Mus musculus [8] = assay: Antianemic effect in sickle cell disease mouse B6 model assessed as fetal hemoglobin level at 100 mg/kg, ip once daily, five days a week for 4 weeks (reference value: 0.2 +/- 0.02 %); type: functional
[9] = Induction of gamma-globin gene expression in human erythrocytes at 100 uM after 3 days by RT-PCR analysis relative to control; type: functional, Erythrocyte; conditions: time 3 day
Erythrocyte [10] = assay: Induction of beta-globin gene expression in human erythrocytes at 147 uM after 3 days by RT-PCR analysis; type: functional, cell-based; conditions: time 3.0 day
Mus musculus [11] = assay: Antianemic effect in sickle cell disease mouse B6 model assessed as F-cell level at 100 mg/kg, ip once daily, five days a week for 4 weeks (reference value: 1.63 +/- 0.11 %); type: functional
[12] = Cytotoxicity against human erythrocytes assessed as cell viability after 3 days alamar blue assay; type: cell-based, Erythrocyte; conditions: time 3 day
Mus musculus [13] = assay: Antianemic effect in sickle cell disease mouse B6 model assessed as sickle cell level at 50 mg/kg, po twice daily, five days a week for 4 weeks (reference value: 16.78 +/- 1.9 %); type: functional
Mus musculus [14] = assay: Antianemic effect in sickle cell disease mouse B6 model assessed as fetal hemoglobin level at 50 mg/kg, po twice daily, five days a week for 4 weeks (reference value: 0.2 +/- 0.02 %); type: functional
Mus musculus [15] = assay: Antianemic effect in sickle cell disease mouse B6 model assessed as sickle cell level at 100 mg/kg, po twice daily, five days a week for 4 weeks (reference value: 16.78 +/- 1.9 %); type: functional
Mus musculus [16] = assay: Antianemic effect in sickle cell disease mouse B6 model assessed as F-cell level at 100 mg/kg, po twice daily, five days a week for 4 weeks (reference value: 1.63 +/- 0.11 %); type: functional
Mus musculus [17] = assay: Antianemic effect in sickle cell disease mouse B6 model assessed as neutrophils level at 50 mg/kg, po twice daily, five days a week for 4 weeks (reference value: 13.39 +/- 4.65 K/uL); type: functional
Mus musculus [18] = assay: Antianemic effect in sickle cell disease mouse B6 model assessed as WBC level at 100 mg/kg, po twice daily, five days a week for 4 weeks (reference value: 34.15 +/- 5.85 K/uL); type: functional
[19] = Induction of GATA1 gene expression in human erythrocyte at 1 uM after 3 days by RT-PCR analysis relative to control; type: functional; conditions: time 3 day
Erythrocyte [20] = assay: Induction of gamma-globin gene expression in human erythrocytes after 3 days by RT-PCR analysis; type: functional, cell-based; conditions: dose 0.06-2 µM, time 3.0 day
[21] = AUC (0 to infinity) in Sprague-Dawley rat at 20 mg/kg, po measured upto 24 hrs by LC-MS/MS analysis; type: ADME, organism-based; set-up: route oral, dose 20 mg/kg, time <=24; conditions: in vivo
[22] = Induction of CPOX gene expression in human erythrocyte at 0.5 uM after 3 days by RT-PCR analysis relative to control; type: functional; conditions: time 3 day
Mus musculus [23] = assay: Antianemic effect in sickle cell disease mouse B6 model assessed as WBC level at 50 mg/kg, po twice daily, five days a week for 4 weeks (reference value: 34.15 +/- 5.85 K/uL); type: functional
[24] = Downregulation of c-MYB gene expression in human erythrocyte at 1 uM after 3 days by RT-PCR analysis relative to control; type: functional; conditions: time 3 day
[25] = Half life in Sprague-Dawley rat at 20 mg/kg, po measured upto 24 hrs by LC-MS/MS analysis; type: ADME, organism-based; conditions: in vivo
[26] = molecular target: Histone deacetylase (Homo sapiens) (UniProt Q13547+O15379+Q9UBN7+Q92769+Q9UQL6+Q8WUI4+Q9BY41+Q96DB2+P56524+Q9UKV0+Q969S8); assay: Inhibition of HDAC in human erythrocyte cells assessed as increase in acetylation of histone H4 at 0.5 to 1 uM after 3 days by Western blot analysis; type: cell-based; conditions: dose 0.5-1 µM, time 3.0 day
Mus musculus [27] = assay: Antianemic effect in sickle cell disease mouse B6 model assessed as reticulocytes level at 50 mg/kg, po twice daily, five days a week for 4 weeks (reference value: 57.34 +/- 3.67 %); type: functional
[28] = Cytotoxicity against human erythrocytes assessed as cell viability at 2 uM after 3 days alamar blue assay relative to control; type: cell-based, Erythrocyte; conditions: time 3 day, read-out: Activity
[29] = Induction of gamma-globin gene expression in human HU-resistant primary erythrocytes at 0.5 uM after 3 days by RT-PCR analysis relative to control; type: functional, Erythrocyte; conditions: time 3 day
[30] = Downregulation of c-MYB gene expression in human erythrocyte at 0.5 uM after 3 days by RT-PCR analysis relative to control; type: functional; conditions: time 3 day
Mus musculus [31] = assay: Antianemic effect in sickle cell disease mouse B6 model assessed as RBC level at 100 mg/kg, po twice daily, five days a week for 4 weeks (reference value: 7.23 +/- 0.75 M/uL); type: functional
Mus musculus [32] = assay: Antianemic effect in sickle cell disease mouse B6 model assessed as neutrophils level at 100 mg/kg, po twice daily, five days a week for 4 weeks (reference value: 13.39 +/- 4.65 K/uL); type: functional
[33] = Induction of gamma-globin gene expression in human erythrocytes at 2 uM after 3 days by RT-PCR analysis relative to control; type: functional, Erythrocyte; conditions: time 3 day
[34] = Induction of NFE2L2 gene expression in human erythrocyte at 0.5 uM after 3 days by RT-PCR analysis relative to control; type: functional; conditions: time 3 day
[35] = Induction of GATA1 gene expression in human erythrocyte at 0.5 uM after 3 days by RT-PCR analysis relative to control; type: functional; conditions: time 3 day
Mus musculus [36] = assay: Antianemic effect in sickle cell disease mouse B6 model assessed as reticulocytes level at 100 mg/kg, po twice daily, five days a week for 4 weeks (reference value: 57.34 +/- 3.67 %); type: functional
Erythrocyte [37] = assay: Downregulation of […] expression in human erythrocyte at 1 uM after 3 days by Western blot analysis; type: functional, tissue-based; conditions: time 3.0 day
[38] = Water solubility of compound at pH 7.4 after 24 hrs by LC/MS analysis; type: physicochemical; conditions: buffer, pH 7.4, 24 h
Erythrocyte [39] = assay: Cytotoxicity against human erythrocytes assessed as cell viability at 4 uM after 3 days alamar blue assay; type: cell-based; conditions: 72 h, time 3 day
[40] = Oral bioavailability in Sprague-Dawley rat at 20 mg/kg measured upto 24 hrs by LC-MS/MS analysis; type: ADME, organism-based; conditions: in vivo
Mus musculus [41] = assay: Antianemic effect in sickle cell disease mouse B6 model assessed as F-cell level at 50 mg/kg, po twice daily, five days a week for 4 weeks (reference value: 1.63 +/- 0.11 %); type: functional
[42] = Induction of gamma-globin gene expression in human erythrocytes at 1 uM after 3 days by RT-PCR analysis relative to control; type: functional, Erythrocyte; conditions: time 3 day
[43] = Cmax in Sprague-Dawley rat at 20 mg/kg, po measured upto 24 hrs by LC-MS/MS analysis; type: ADME, organism-based; set-up: route oral, dose 20 mg/kg, time <=24; conditions: in vivo
[44] = AUC (0 to infinity) in Sprague-Dawley rat at 5 mg/kg, iv measured upto 24 hrs by LC-MS/MS analysis; type: ADME, organism-based; set-up: route intravenous, dose 5 mg/kg, time <=24; conditions: in vivo
Mus musculus [45] = assay: Antianemic effect in sickle cell disease mouse B6 model assessed as hemoglobin level at 50 mg/kg, po twice daily, five days a week for 4 weeks (reference value: 7.46 +/- 0.7 g/dl); type: functional
[46] = Volume of distribution at steady state in Sprague-Dawley rat at 5 mg/kg, iv measured upto 24 hrs by LC-MS/MS analysis; type: ADME, organism-based; conditions: in vivo, read-out: Vdss
[47] = Induction of CPOX gene expression in human erythrocyte at 1 uM after 3 days by RT-PCR analysis relative to control; type: functional; conditions: time 3 day
Erythrocyte [48] = assay: Induction of gamma-globin gene expression in human erythrocytes at 0.5 uM after 3 days by RT-PCR analysis; type: functional, cell-based; conditions: time 3.0 day
Mus musculus [49] = assay: Antianemic effect in sickle cell disease mouse B6 model assessed as hemoglobin level at 100 mg/kg, po twice daily, five days a week for 4 weeks (reference value: 7.46 +/- 0.7 g/dl); type: functional
Mus musculus [50] = assay: Antianemic effect in sickle cell disease mouse B6 model assessed as fetal hemoglobin level at 100 mg/kg, po twice daily, five days a week for 4 weeks (reference value: 0.2 +/- 0.02 %); type: functional
Erythrocyte [51] = assay: Cytotoxicity against human erythrocytes assessed as cell viability at 1 uM after 3 days alamar blue assay; type: cell-based; conditions: 72 h, time 3 day
[52] = Half life in Sprague-Dawley rat at 5 mg/kg, iv measured upto 24 hrs by LC-MS/MS analysis; type: ADME, organism-based; conditions: in vivo
Mus musculus [53] = assay: Antianemic effect in sickle cell disease mouse B6 model assessed as RBC level at 50 mg/kg, po twice daily, five days a week for 4 weeks (reference value: 7.23 +/- 0.75 M/uL); type: functional
Erythrocyte [54] = assay: Induction of gamma-globin gene expression in human erythrocytes at 0.5 to 1 uM after 3 days Western blot analysis; type: functional, cell-based; conditions: dose 0.5-1 µM, time 3.0 day
Erythrocyte [55] = assay: Induction of beta-globin gene expression in human erythrocytes at 0.5 uM after 3 days by RT-PCR analysis; type: functional, cell-based; conditions: time 3.0 day
[56] = Clearance in Sprague-Dawley rat at 5 mg/kg, iv measured upto 24 hrs by LC-MS/MS analysis; type: ADME, organism-based; conditions: in vivo
[57] = Induction of NFE2L2 gene expression in human erythrocyte at 1 uM after 3 days by RT-PCR analysis relative to control; type: functional; conditions: time 3 day

Structure (SMILES): NC(=O)NO [HYDROXYUREA]
Activity (Mus musculus [1]): 14.7% | Activity (Mus musculus [2]): 50.92% | Activity (Mus musculus [3]): 9.75 K/uL | Activity (Mus musculus [4]): 6.34 M/uL | Activity (Mus musculus [5]): 23.02 K/uL | Activity (Erythrocyte [6]): Active | Activity (Mus musculus [7]): 6.7 g/dL | Activity (Mus musculus [8]): 0.23% | fold change (FC) [9]: 2.5 | Activity (Erythrocyte [10]): Active | Activity (Mus musculus [11]): 1.3% | CC50 at 72 h [12]: 147 µM

AUC(0-inf) [21]: 9000 ng·h/mL | half-life [25]: 3.8 h | inhibition [26]: inactive | solubility [38]: 3.38 µg/mL | bioavailability [40]: 25% | Cmax [43]: 2730 ng/mL | AUC(0-inf) [44]: 8860 ng·h/mL | Vd [46]: 0.3 L/kg | half-life [52]: 7.2 h | clearance [56]: 8.2 mL/min/kg
Structure (SMILES): CCN1CCN(c2nc(Nc3cccc(NC(=O)C#Cc4ccc(C)cc4)c3)c3ncn(CC)c3n2)CC1.Cl.Cl
Activity (Mus musculus [13]): 10% | Activity (Mus musculus [14]): 0.28% | Activity (Mus musculus [15]): 8.8% | Activity (Mus musculus [16]): 2.42% | Activity (Mus musculus [17]): 15.05 K/uL | Activity (Mus musculus [18]): 44.12 K/uL | fold change (FC) [19]: 2.3 | Activity (Erythrocyte [20]): Dose-dependent effect | fold change (FC) [22]: 1.8 | Activity (Mus musculus [23]): 35.85 K/uL | fold change (FC) [24]: 0.6 | Activity (Mus musculus [27]): 58.98% | viability at 72 h, 2 µM [28]: 72% | fold change (FC) [29]: 2 | fold change (FC) [30]: 0.7 | Activity (Mus musculus [31]): 8.05 M/uL | Activity (Mus musculus [32]): 15.64 K/uL | fold change (FC) [33]: 4.8 | fold change (FC) [34]: 1.7 | fold change (FC) [35]: 1.6 | Activity (Mus musculus [36]): 54.66% | Activity (Erythrocyte [37]): Active | Activity (Erythrocyte [39]): Toxic | Activity (Mus musculus [41]): 2.15% | fold change (FC) [42]: 3.8 | Activity (Mus musculus [45]): 8.15 g/dL | fold change (FC) [47]: 2.2 | Activity (Erythrocyte [48]): Active | Activity (Mus musculus [49]): 8.05 g/dL | Activity (Mus musculus [50]): 0.3% | Activity (Erythrocyte [51]): Non-Toxic | Activity (Mus musculus [53]): 7.78 M/uL | Activity (Erythrocyte [54]): Active | Activity (Erythrocyte [55]): inactive | fold change (FC) [57]: 2.3
